The numbers were not newly measured in patent publication US20190298786A1, “EXTRACTS OF SAUDI ARABIAN HERBAL PLANTS, ANTI-CANCER METHOD USING SUCH EXTRACTS, AND CYTOLOGICAL PROFILING USING AUTOMATED HIGH-CONTENT IMAGING TECHNIQUE” (King Abdullah University of Science and Technology, priority 2016, published 2019), which cites them from elsewhere.

The subject of data set [1] is MCF7 cells.
For data set [2], the system named is CasKi cells.
The subject of data set [3] is KB cells.
Data set [4] relates to human cervical cancer (HOG-1) cell. As to conditions: HOG-1 cells, different concentrations.

Molecules are shown by their SMILES. In brackets after ≈: the same amount, converted by molar mass.

Turning to `CC(C)(C)c1ccc(O)c(C(C)(C)C)c1` [2,4-ditert-butylphenol], the “IC50 (cytotoxic effects)” value is 5.75 mg/L (≈ 27.9 µM) in data set [1], 4.5 mg/L (≈ 21.8 µM) in data set [2] and 0.81 mg/L (≈ 3.93 µM) in data set [3].

In the case of `CCCCCCCCCCCCCCCCCC(=O)O` [stearic acid, Stearic acid], the “effect on cell growth and DNA synthesis” value in data set [4] is reported as “inhibited”.
